The supplement of paper PMC10627819

Legend:
S. aureus DSM 20231 [1] = assay: Bliss interaction score (quartile over a dose matrix) (fitness difference); higher = more antagonism (negative = synergy)
Summary of the method: (§1)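 Growth was read as OD595 when cultures entered stationary phase, and each value was divided by the plate's robust no-drug mean and capped at 1. This normalised ratio is the fitness value, and fitness for each single drug came from the combination data. The Bliss score subtracts the expected fitness, taken as the product, from the observed fitness and is given as quartiles across technical, biological and donor/recipient replicates.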

B. subtilis 168 [2] = assay: as above
Summary of the method: as §1

S. aureus Newman = assay: as above
Summary of the method: as §1

S. pneumoniae D39V [3] = assay: as above
Summary of the method: as §1

S. aureus DSM 20231 [4] = assay: fitness (endpoint OD595 vs no drug) (fraction); higher = more growth
Summary of the method: (§2)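 At 37 °C, bacteria in TSB, LB Lennox or CY were grown in 384-well plates from a starting OD595 of 0.01. OD595 was measured every 30 min for 14 h, with the first reading used as background. Fitness is the optical density at the switch to stationary phase as a fraction of the robust mean of no-drug control wells, capped at 1.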

B. subtilis 168 [5] = assay: as above
Summary of the method: as §2

S. pneumoniae D39V [6] = assay: as above
Summary of the method: as §2
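For Bliss interaction score (quartile over a dose matrix) in this document: first quartile when negative (synergy) and third quartile when positive (antagonism).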
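For fitness (endpoint OD595 vs no drug) in this document: OD595 on entry to stationary phase over no-drug wells; at most 1.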

O=C(O[C@@H]1Cc2c(O)cc(O)cc2O[C@@H]1c1cc(O)c(O)c(O)c1)c1cc(O)c(O)c(O)c1 [EGCG] + COc1cc(Cc2cnc(N)nc2N)cc(OC)c1OC [Trimethoprim]
Conditions	Bliss interaction score
B. subtilis 168 [2]	-0.0682
S. aureus DSM 20231 [1]	0.0729
S. aureus Newman	0.115
S. pneumoniae D39V [3]	0.12

fitness
Conditions	partner 0.125 µg/mL	partner 0.25 µg/mL	partner 0.5 µg/mL	partner 1 µg/mL
B. subtilis 168 [5], first compound 6.25 µg/mL	0.611	–	0.508	–
B. subtilis 168 [5], first compound 12.5 µg/mL	0.363	0.426	0.41	–
B. subtilis 168 [5], first compound 25 µg/mL	0.232	–	0.244	–
S. aureus DSM 20231 [4], first compound 12.5 µg/mL	0.621	0.544	0.338	0.0444
S. aureus DSM 20231 [4], first compound 25 µg/mL	0.675	0.541	0.3	0.0338
S. aureus DSM 20231 [4], first compound 50 µg/mL	0.71	0.588	0.292	0.0285

fitness, B. subtilis 168 [5], one replicate
Conditions	partner 0.1 µg/mL	partner 0.2 µg/mL	partner 0.4 µg/mL	partner 1 µg/mL	partner 2 µg/mL
first compound 6.25 µg/mL	0.856	0.624	0.464	0.346	0.485
first compound 12.5 µg/mL	0.438	0.252	0.235	0.127	0.13
first compound 25 µg/mL	0.199	0.102	0.0997	0.0869	0.0586

CCC[C@@H]1C[C@@H](C(=O)N[C@@H]([C@H]2O[C@H](SC)[C@H](O)[C@@H](O)[C@H]2O)[C@@H](C)O)N(C)C1 [Lincomycin] + CCCCCCCCCC(=O)N[C@@H]1[C@H]([C@@H]([C@H](O[C@H]1OC2=C3C=C4C=C2OC5=C(C=C(C=C5)[C@H]([C@H]6C(=O)N[C@@H](C7=C(C(=CC(=C7)O)OC8[C@H]([C@H]([C@@H]([C@H](O8)CO)O)O)O)C9=C(C=CC(=C9)[C@H](C(=O)N6)NC(=O)[C@@H]4NC(=O)[C@@H]1C2=CC(=CC(=C2)OC2=C(C=CC(=C2)[C@H](C(=O)N[C@H](CC2=CC(=C(O3)C=C2)Cl)C(=O)N1)N)O)O)O)C(=O)O)O[C@H]1[C@@H]([C@H]([C@@H]([C@H](O1)CO)O)O)NC(=O)C)Cl)CO)O)O [Teicoplanin]
main component drawn
Conditions	Bliss interaction score
B. subtilis 168 [2]	-0.111
S. aureus DSM 20231 [1]	0.118
S. aureus Newman	0.179
S. pneumoniae D39V [3]	-0.0397

fitness, S. aureus DSM 20231 [4], main component drawn
Conditions	partner 0.1562 µg/mL	partner 0.3125 µg/mL	partner 0.625 µg/mL
first compound 0.1 µg/mL	0.913	0.979	≥ 1
first compound 0.2 µg/mL	0.825	0.821	0.941

CCC[C@@H]1C[C@@H](C(=O)N[C@@H]([C@H]2O[C@H](SC)[C@H](O)[C@@H](O)[C@H]2O)[C@@H](C)O)N(C)C1 [Lincomycin] + CN[C@H](CC(C)C)C(=O)N[C@H]1C(=O)N[C@@H](CC(N)=O)C(=O)N[C@H]2C(=O)N[C@H]3C(=O)N[C@H](C(=O)N[C@H](C(=O)O)c4cc(O)cc(O)c4-c4cc3ccc4O)[C@H](O)c3ccc(c(Cl)c3)Oc3cc2cc(c3O[C@@H]2O[C@H](CO)[C@@H](O)[C@H](O)[C@H]2O[C@H]2C[C@](C)(N)[C@H](O)[C@H](C)O2)Oc2ccc(cc2Cl)[C@H]1O [Vancomycin]
Conditions	Bliss interaction score
B. subtilis 168 [2]	0.0223
S. aureus DSM 20231 [1]	-0.0567
S. aureus Newman	0.0733
S. pneumoniae D39V [3]	0.117

Conditions	fitness
S. aureus DSM 20231 [4], first compound 0.1 µg/mL, partner 0.1875 µg/mL	0.805
S. aureus DSM 20231 [4], first compound 0.1 µg/mL, partner 0.375 µg/mL	0.873
S. aureus DSM 20231 [4], first compound 0.1 µg/mL, partner 0.75 µg/mL	0.922
S. aureus DSM 20231 [4], first compound 0.2 µg/mL, partner 0.1875 µg/mL	0.679
S. aureus DSM 20231 [4], first compound 0.2 µg/mL, partner 0.375 µg/mL	0.701
S. aureus DSM 20231 [4], first compound 0.2 µg/mL, partner 0.75 µg/mL	0.745
S. aureus DSM 20231 [4], first compound 0.4 µg/mL, partner 0.1875 µg/mL	0.346
S. aureus DSM 20231 [4], first compound 0.4 µg/mL, partner 0.375 µg/mL	0.336
S. aureus DSM 20231 [4], first compound 0.4 µg/mL, partner 0.75 µg/mL	0.371
S. pneumoniae D39V [6], first compound 0.2 µg/mL, partner 0.03125 µg/mL	0.706
S. pneumoniae D39V [6], first compound 0.2 µg/mL, partner 0.0625 µg/mL	0.695
S. pneumoniae D39V [6], first compound 0.2 µg/mL, partner 0.125 µg/mL	0.489
S. pneumoniae D39V [6], first compound 0.215 µg/mL, partner 0.125 µg/mL	0.845
S. pneumoniae D39V [6], first compound 0.215 µg/mL, partner 0.25 µg/mL	0.782
S. pneumoniae D39V [6], first compound 0.4 µg/mL, partner 0.03125 µg/mL	0.61
S. pneumoniae D39V [6], first compound 0.4 µg/mL, partner 0.0625 µg/mL	0.604
S. pneumoniae D39V [6], first compound 0.43 µg/mL, partner 0.125 µg/mL	0.792
S. pneumoniae D39V [6], first compound 0.43 µg/mL, partner 0.25 µg/mL	0.699
S. pneumoniae D39V [6], first compound 0.43 µg/mL, partner 0.5 µg/mL	0.248
S. pneumoniae D39V [6], first compound 0.8 µg/mL, partner 0.03125 µg/mL	0.279
S. pneumoniae D39V [6], first compound 0.8 µg/mL, partner 0.125 µg/mL	0.191
S. pneumoniae D39V [6], first compound 0.86 µg/mL, partner 0.125 µg/mL	0.356
S. pneumoniae D39V [6], first compound 0.86 µg/mL, partner 0.25 µg/mL	0.311
S. pneumoniae D39V [6], first compound 0.86 µg/mL, partner 0.5 µg/mL	0.0793

CCC[C@@H]1C[C@@H](C(=O)N[C@@H]([C@H]2O[C@H](SC)[C@H](O)[C@@H](O)[C@H]2O)[C@@H](C)O)N(C)C1 [Lincomycin] + COc1cc(Cc2cnc(N)nc2N)cc(OC)c1OC [Trimethoprim]
Conditions	Bliss interaction score
B. subtilis 168 [2]	-0.231
S. aureus DSM 20231 [1]	0.222
S. aureus Newman	0.213
S. pneumoniae D39V [3]	-0.125

fitness
Conditions	first compound 0.1 µg/mL	first compound 0.2 µg/mL	first compound 0.4 µg/mL	first compound 0.8 µg/mL	first compound 1.6 µg/mL
B. subtilis 168 [5], partner 0.125 µg/mL	–	–	0.487	–	–
B. subtilis 168 [5], partner 0.25 µg/mL	–	–	0.465	0.263	0.0775
B. subtilis 168 [5], partner 0.5 µg/mL	0.412	0.368	0.282	0.155	0.0565
S. aureus DSM 20231 [4], partner 0.125 µg/mL	0.83	0.556	0.227	–	–
S. aureus DSM 20231 [4], partner 0.25 µg/mL	0.69	0.596	–	–	–
S. aureus DSM 20231 [4], partner 0.5 µg/mL	0.49	0.536	0.173	–	–
S. aureus DSM 20231 [4], partner 1 µg/mL	0.0776	0.0724	0.0567	–	–

fitness, B. subtilis 168 [5], one replicate
Conditions	partner 0.1 µg/mL	partner 0.125 µg/mL	partner 0.2 µg/mL	partner 0.25 µg/mL	partner 0.4 µg/mL	partner 1 µg/mL	partner 2 µg/mL
first compound 0.1 µg/mL	–	0.539	–	0.582	–	0.451	0.343
first compound 0.2 µg/mL	–	0.633	–	0.619	–	0.319	0.174
first compound 0.4 µg/mL	0.581	–	0.318	–	0.215	0.069	0.0635
first compound 0.8 µg/mL	0.382	0.142	0.169	–	0.121	–	–
first compound 1.6 µg/mL	0.112	0.0455	0.0673	–	0.0597	–	–
